Assay results reported in patent US6358885B1, “Substituted phenylheterocyclic herbicides” (Mississippi State University, priority 1992, dated 2002).

Key:
umbrella sedge = experiment: Test C flood test plant response rating 0 to 100; assay type: in vivo, Cyperus difformis; details: for Plant response rating Umbrella sedge: flood test species listed under POSTEMERGENCE, 0 to 100 scale
In short: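 Compounds in non-phytotoxic solvent applied preemergence to sandy loam one day after planting, postemergence at the 1–4 leaf stage, or to ~2.5 cm floodwater over silt loam.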

ryegrass = experiment: Test C preemergence/postemergence greenhouse plant response rating 0 to 100; assay type: in vivo, Lolium multiflorum; details: POSTEMERGENCE; for Plant response rating Ryegrass: 0 to 100 scale
In short: (§1)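 Compounds in non-phytotoxic solvent went onto sandy loam before emergence (seeded one day earlier) or onto plants at the one-to-four leaf stage. Duck salad was treated via flood water (~2.5 cm, maintained) over silt loam.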

corn = experiment: as above; assay type: in vivo, Zea mays; details: POSTEMERGENCE; for Plant response rating, Corn: 0 to 100 scale
In short: as §1

downy brome = experiment: as above; assay type: in vivo, Bromus tectorum; details: POSTEMERGENCE; for Plant response rating Downy Brome: 0 to 100 scale
In short: as §1

rape = experiment: Test B preemergence/postemergence greenhouse plant response rating 0 to 10; assay type: in vivo, Brassica napus; details: 0 to 10 scale
In short: (§2)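 Postemergence treatment of plants two to eighteen cm tall ran alongside preemergence treatment of planted seed, each using compound in a non-phytotoxic solvent.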

chickweed = experiment: as above; assay type: in vivo, Stellaria media; details: 0 to 10 scale
In short: as §2

wild oat = experiment: Test C preemergence/postemergence greenhouse plant response rating 0 to 100; assay type: in vivo, Avena fatua; details: POSTEMERGENCE; for Plant response rating, Wild oat: 0 to 100 scale
In short: as §1

barnyardgrass = experiment: Test B preemergence/postemergence greenhouse plant response rating 0 to 10; assay type: in vivo, Echinochloa crus-galli; details: for Plant response rating, Barnyardgrass: 0 to 10 scale
In short: as §2

wild buckwheat = experiment: as above; assay type: in vivo, Polygonum convolvulus; details: 0 to 10 scale
In short: as §2

smooth crabgrass = experiment: Test G preemergence/postemergence greenhouse plant response rating 0 to 100; assay type: in vivo, Digitaria ischaemum; details: 0 to 100 scale
From the text: Seeds, rhizomes, or plant parts of alfalfa (Medicago ativa), annual bluegrass (Poa annua), bermudagrass (Cynodon dactylon), broadleaf signalgrass (Brachiaria plantaginea), common purslane (Portulaca oleracea), common ragweed (Ambrosia elatior), […] (Paspalum dilatatum), goosegrass (Eleusine indica), guineagrass (Panicum maximum), […] exaltata), johnsongrass (Sorghum halepense), large crabgrass (Digitaria sanguinalis), peanut (Arachis hypoagaea), pitted morningglory (Ipomoea lacunosa), purple nutsedge (Cyperus rotundus), sandbur (Cenchrus echinatus), smooth crabgrass (Digitaria ischaemum) and yellow nutsedge (Cyperus esculentus) were planted into greenhouse pots containing greenhouse planting medium. Each pot contained only one plant species. The test compound was dissolved in a non-phytotoxic solvent and applied preemergence and/or postemergence to the plants. Preemergence applications were made within one day of planting the seeds or plant parts. Postemergence applications were applied when the plants were in the two to four leaf stage (three to twenty cm). Test chemicals were dissolved in a non-phytotoxic solvent and applied preemergence and postemergence to the plants. Untreated control plants and treated plants were placed in the greenhouse and visually evaluated for injury at 13 to 21 days after herbicide application. […] A dash (-) response indicates no test result.

bedstraw = experiment: Test C preemergence/postemergence greenhouse plant response rating 0 to 100; assay type: in vivo, Galium aparine; details: POSTEMERGENCE; for Plant response rating, Bedstraw: 0 to 100 scale
In short: as §1

sugar beet = experiment: as above; assay type: in vivo, Beta vulgaris; details: POSTEMERGENCE; for Plant response rating, Sugar beet: 0 to 100 scale
In short: as §1

crabgrass = experiment: as above; assay type: in vivo, Digitaria sanguinalis; details: POSTEMERGENCE; for Plant response rating, Crabgrass: 0 to 100 scale
In short: as §1

Question: How did the “Plant response rating (0 to 100), Umbrella sedge” value (umbrella sedge; POSTEMERGENCE section, flood test, Rate 4 g/ha) turn out when `COC(=O)C(C)Oc1cc(-c2nn3c(c2Cl)CCCC3)c(F)cc1Cl` (stereo not drawn) [Compound 28] was run?
Answer: 0

Question: And the “Plant response rating (0 to 100), Umbrella sedge” value (umbrella sedge; Rate 16 g/ha, under POSTEMERGENCE head (flood test species))?
Answer: 0

Question: What about the “Plant response rating Umbrella sedge” value (umbrella sedge; 62 g/ha) of the same compound?
Answer: 20

Question: What about the “Plant response rating Umbrella sedge” value (umbrella sedge; 250 g/ha) of the same compound?
Answer: 70

Question: And the “Plant response rating Ryegrass” value (ryegrass; 62 g/ha)?
Answer: 60

Question: And the “Plant response rating Ryegrass” value (ryegrass; 250 g/ha)?
Answer: 70

Question: What about the “Plant response rating (0 to 100), Ryegrass” value (ryegrass; Rate 4 g/ha) of the same compound?
Answer: 20

Question: What about the “Plant response rating (0 to 100), Ryegrass” value (ryegrass; Rate 16 g/ha) of the same compound?
Answer: 40

Question: What about the “Plant response rating, Corn” value (corn; 62 g/ha) of the same compound?
Answer: 80

Question: And the “Plant response rating, Corn” value (corn; 250 g/ha)?
Answer: 90

Question: What about the “Plant response rating (0 to 100), Corn” value (corn; Rate 4 g/ha) of the same compound?
Answer: 20

Question: And the “Plant response rating (0 to 100), Corn” value (corn; Rate 16 g/ha)?
Answer: 25

Question: And the “Plant response rating Downy Brome” value (downy brome; 62 g/ha)?
Answer: 60

Question: And the “Plant response rating Downy Brome” value (downy brome; 250 g/ha)?
Answer: 100

Question: What about the “Plant response rating (0 to 100), Downy Brome” value (downy brome; Rate 4 g/ha) of the same compound?
Answer: 10

Question: And the “Plant response rating (0 to 100), Downy Brome” value (downy brome; Rate 16 g/ha)?
Answer: 40

Question: And the “Plant response rating, Rape” value (rape; POSTEMERGENCE, Rate 50 g/ha)?
Answer: 10

Question: What about the “Plant response rating, Rape” value (rape; POSTEMERGENCE, Rate 200 g/ha) of the same compound?
Answer: 10

Question: What about the “Plant response rating, Rape” value (rape; PREEMERGENCE, Rate 50 g/ha) of the same compound?
Answer: 9

Question: And the “Plant response rating, Rape” value (rape; Rate 200 g/ha, PREEMERGENCE)?
Answer: 10

Question: And the “Plant response rating, Chickweed” value (chickweed; POSTEMERGENCE, Rate 200 g/ha)?
Answer: 9

Question: And the “Plant response rating, Chickweed” value (chickweed; PREEMERGENCE, Rate 50 g/ha)?
Answer: 1

Question: What about the “Plant response rating, Chickweed” value (chickweed; Rate 200 g/ha, PREEMERGENCE) of the same compound?
Answer: 7

Question: And the “Plant response rating, Wild oat” value (wild oat; 62 g/ha)?
Answer: 50

Question: What about the “Plant response rating, Wild oat” value (wild oat; 250 g/ha) of the same compound?
Answer: 70

Question: And the “Plant response rating (0 to 100), Wild oat” value (wild oat; Rate 4 g/ha)?
Answer: 20

Question: What about the “Plant response rating (0 to 100), Wild oat” value (wild oat; Rate 16 g/ha) of the same compound?
Answer: 30

Question: What about the “Plant response rating (0 to 10 scale), Barnyardgrass” value (barnyardgrass; POSTEMERGENCE, Rate 50 g/ha) of the same compound?
Answer: 7

Question: What about the “Plant response rating, Barnyardgrass” value (barnyardgrass; POSTEMERGENCE, Rate 200 g/ha) of the same compound?
Answer: 10

Question: And the “Plant response rating, Barnyardgrass” value (barnyardgrass; PREEMERGENCE, Rate 50 g/ha)?
Answer: 0

Question: What about the “Plant response rating, Barnyardgrass” value (barnyardgrass; Rate 200 g/ha, PREEMERGENCE) of the same compound?
Answer: 1

Question: And the “Plant response rating, Wild buckwheat” value (wild buckwheat; POSTEMERGENCE, Rate 50 g/ha)?
Answer: 9

Question: What about the “Plant response rating, Wild buckwheat” value (wild buckwheat; POSTEMERGENCE, Rate 200 g/ha) of the same compound?
Answer: 10

Question: And the “Plant response rating, Wild buckwheat” value (wild buckwheat; PREEMERGENCE, Rate 50 g/ha)?
Answer: 7

Question: And the “Plant response rating, Wild buckwheat” value (wild buckwheat; Rate 200 g/ha, PREEMERGENCE)?
Answer: 7

Question: And the “Plant response rating, Smooth Crabgras” value (smooth crabgrass; POSTEMERGENCE, Rate 125 g/ha)?
Answer: 0

Question: And the “Plant response rating, Smooth Crabgras” value (smooth crabgrass; POSTEMERGENCE, Rate 250 g/ha)?
Answer: 0

Question: And the “Plant response rating, Smooth Crabgras” value (smooth crabgrass; PREEMERGENCE, Rate 125 g/ha)?
Answer: 0

Question: And the “Plant response rating, Smooth Crabgras” value (smooth crabgrass; PREEMERGENCE, Rate 250 g/ha)?
Answer: 0

Question: What about the “Plant response rating, Bedstraw” value (bedstraw; 62 g/ha) of the same compound?
Answer: 100

Question: What about the “Plant response rating, Bedstraw” value (bedstraw; 250 g/ha) of the same compound?
Answer: 100

Question: What about the “Plant response rating (0 to 100), Bedstraw” value (bedstraw; Rate 4 g/ha) of the same compound?
Answer: 90

Question: What about the “Plant response rating (0 to 100), Bedstraw” value (bedstraw; Rate 16 g/ha) of the same compound?
Answer: 100

Question: What about the “Plant response rating, Sugar beet” value (sugar beet; 62 g/ha) of the same compound?
Answer: 100

Question: What about the “Plant response rating, Sugar beet” value (sugar beet; 250 g/ha) of the same compound?
Answer: 100

Question: And the “Plant response rating (0 to 100), Sugar beet” value (sugar beet; Rate 4 g/ha)?
Answer: 100

Question: And the “Plant response rating (0 to 100), Sugar beet” value (sugar beet; Rate 16 g/ha)?
Answer: 100

Question: What about the “Plant response rating, Crabgrass” value (crabgrass; 62 g/ha) of the same compound?
Answer: 20

Question: What about the “Plant response rating, Crabgrass” value (crabgrass; 250 g/ha) of the same compound?
Answer: 50

Question: What about the “Plant response rating (0 to 100), Crabgrass” value (crabgrass; Rate 4 g/ha) of the same compound?
Answer: 0

Question: What about the “Plant response rating (0 to 100), Crabgrass” value (crabgrass; Rate 16 g/ha) of the same compound?
Answer: 0
